Laboratory results from the supplement of paper PMC10307832.

Columns and labels:
Test in all cases: relative viability (nuclei count vs DMSO), 5 days (fraction); higher = more cells survive
Shikonin + Crizotinib = compound: CC(C)=CC[C@@H](O)C1=CC(=O)c2c(O)ccc(O)c2C1=O [Shikonin] + C[C@@H](Oc1cc(-c2cnn(C3CCNCC3)c2)cnc1N)c1c(Cl)ccc(F)c1Cl [Crizotinib] (partner 1 µM)
How it was run: (§1)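 For relative viability, nuclei counts in treated wells were divided by those in vehicle wells. Lung cancer cell lines had been pin-tool dosed in 1536-well plates the day after seeding and cultured for 5 days, then fixed and stained in one step (final 0.05% Triton X-100, 1% formaldehyde, 1 ug/ml Hoechst) and imaged at 4×. Doses were one drug alone or a fixed anchor-drug dose plus five library-drug doses (not always all listed) in √10 steps, and values are duplicate-plate medians.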

Shikonin + Bortezomib = compound: CC(C)=CC[C@@H](O)C1=CC(=O)c2c(O)ccc(O)c2C1=O [Shikonin] + CC(C)C[C@H](NC(=O)[C@H](Cc1ccccc1)NC(=O)c1cnccn1)B(O)O [Bortezomib] (partner 0.002 µM)
How it was run: as §1

[1] = compound: CC(C)N(CCCNC(=O)Nc1ccc(C(C)(C)C)cc1)C[C@H]1O[C@@H](n2ccc3c(N)ncnc32)[C@H](O)[C@@H]1O + CC(C)C[C@H](NC(=O)[C@H](Cc1ccccc1)NC(=O)c1cnccn1)B(O)O [Bortezomib] (partner 0.002 µM)
How it was run: as §1

[2] = compound: CC(C)N(CCCNC(=O)Nc1ccc(C(C)(C)C)cc1)C[C@H]1O[C@@H](n2ccc3c(N)ncnc32)[C@H](O)[C@@H]1O + NC(=O)Nc1cc(-c2cccc(F)c2)sc1C(=O)N[C@H]1CCCNC1 [AZD7762] (partner 0.2 µM)
How it was run: as §1

Row | Cell Line | relative viability (Shikonin + Crizotinib; first compound 0.01 µM) | relative viability (Shikonin + Crizotinib; first compound 0.1 µM) | relative viability (Shikonin + Crizotinib; first compound 0.3162 µM) | relative viability (Shikonin + Crizotinib; first compound 1 µM) | relative viability (Shikonin + Bortezomib; first compound 0.01 µM) | relative viability (Shikonin + Bortezomib; first compound 0.1 µM) | relative viability (Shikonin + Bortezomib; first compound 0.3162 µM) | relative viability (Shikonin + Bortezomib; first compound 1 µM) | relative viability ([1]; first compound 0.08 µM) | relative viability ([1]; first compound 0.253 µM) | relative viability ([1]; first compound 0.8 µM) | relative viability ([1]; first compound 2.53 µM) | relative viability ([1]; first compound 8 µM) | relative viability ([2]; first compound 0.08 µM) | relative viability ([2]; first compound 0.253 µM) | relative viability ([2]; first compound 0.8 µM) | relative viability ([2]; first compound 2.53 µM) | relative viability ([2]; first compound 8 µM)
1 | NCI-H322M | 0.866 | 0.997 | 0.855 | 0.882 | 1.14 | 1.32 | 1.26 | 1.33 | 1.11 | 1.13 | 1.12 | 1.39 | 1.38 | 0.529 | 0.541 | 0.751 | 0.51 | 0.803
2 | NCI-H1975 | 1.07 | 1.18 | 1.09 | 0.959 | 0.273 | 0.365 | 0.452 | 0.363 | 0.34 | 0.352 | 0.149 | 0.36 | 0.341 | 0.701 | 0.686 | – | 0.642 | 0.53
3 | LU99A | 0.545 | 0.688 | 0.599 | 0.465 | 1.21 | 1.33 | 1.09 | 1.03 | 1.12 | 0.831 | 1.38 | 1.16 | 1.2 | 0.416 | 0.316 | 0.421 | 0.473 | 0.317
4 | NCI-H1993 | – | 0.922 | 0.866 | 0.93 | – | 1.19 | 1.09 | 1.03 | 0.96 | 0.912 | 0.915 | 1.13 | 1.16 | 0.659 | – | 0.941 | 0.777 | 0.673
5 | NCI-H2405 | 0.854 | 0.819 | 0.935 | 0.852 | 0.963 | 0.974 | 1.01 | 1 | 0.986 | 0.989 | 0.918 | 0.994 | 0.819 | 0.742 | 0.817 | 0.689 | 0.844 | 0.699
6 | HCC-15 | 0.89 | 0.916 | 0.913 | 0.928 | 1.16 | 1.15 | 1.08 | 1.22 | 0.979 | 1.04 | 0.773 | 1 | 0.943 | 1.24 | 1.35 | – | 0.95 | 1.28
7 | HCC-44 | 0.933 | 0.86 | 0.891 | 0.825 | 0.946 | 0.99 | 0.864 | 0.933 | 0.902 | 1.01 | 0.774 | 0.991 | 0.842 | 1 | 1.1 | 0.897 | 1.04 | 0.929
8 | HCC-78 | 0.325 | 0.388 | 0.357 | 0.377 | 0.572 | 0.474 | 0.607 | 0.552 | 0.488 | – | 0.213 | 0.305 | 0.577 | 0.613 | 0.519 | 0.583 | 0.576 | 0.64
9 | PC-14 | 0.984 | 1.02 | 0.841 | 1.03 | 0.973 | 0.953 | 1.02 | 0.881 | 0.83 | 0.852 | 0.859 | 1 | 0.743 | 0.321 | 0.364 | 0.401 | 0.274 | 0.287
